pIC50: −log10 of the molar value.
Molecular target: T1, ZAC (Homo sapiens, UniProt Q401N2)
T1 sequence (Q401N2 26-412): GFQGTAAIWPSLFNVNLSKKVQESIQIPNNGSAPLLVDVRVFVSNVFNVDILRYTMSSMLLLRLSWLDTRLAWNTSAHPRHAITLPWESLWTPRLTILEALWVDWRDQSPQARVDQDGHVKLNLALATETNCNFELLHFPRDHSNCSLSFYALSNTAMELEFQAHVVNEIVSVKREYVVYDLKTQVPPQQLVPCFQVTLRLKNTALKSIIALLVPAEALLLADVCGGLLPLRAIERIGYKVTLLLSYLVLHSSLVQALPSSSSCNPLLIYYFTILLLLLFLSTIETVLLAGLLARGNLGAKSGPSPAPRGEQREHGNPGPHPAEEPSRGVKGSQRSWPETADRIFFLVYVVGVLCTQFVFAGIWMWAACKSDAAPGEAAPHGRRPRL
Assay: FMP assay at ZAC-HEK293 cells
Format: cell-based
Protocol: The screening of the 1,680 compounds in the compound library for antagonist activity at the ZAC-HEK293 cell line was performed in the FMP assay essentially as previously described. The day before the assay, cells were split into poly-D-lysine-coated black 96-well plates with clear bottoms (BD Biosciences, Palo Alto, CA) (6 × 10^4 cells/well). The following day, the culture medium was aspirated and the wells were washed once with 100 μl assay buffer (140 mM NaCl, 4.7 mM KCl, 2.5 mM CaCl2, 1.2 mM MgCl2, 11 mM HEPES, 10 mM D-glucose, pH 7.4), after which 100 μl assay buffer supplemented with FMP dye (0.5 mg/ml) and the various test compounds were added to the wells. The plate was then incubated at 37 °C for 30 min and assayed in a NOVOStar plate reader (BMG Labtechnologies, Offenburg, Germany) measuring emission at 560 nm caused by excitation at 530 nm before and up to 1 min after the addition of 33 μl of agonist solution. In the screening, the 1,680 compounds in the compound library were tested at assay concentrations in the 10–30 μM range, using Cu^2+ as agonist at an assay concentration of 200 μM.
Data from the FMP assay was analysed using KaleidaGraph 3.08 (Synergy Software, Reading, PA). Concentration-response curves for Cu^2+ and concentration-inhibition curves for compound 1 were constructed based on the difference in the relative fluorescence units (RFU) between the maximal fluorescence recorded before and after application of Cu^2+. The data were fitted to sigmoidal curves with variable slopes using nonlinear regression, and EC50 (Cu^2+) and IC50 (compound 1) values were derived from these equations.

## COC(=O)c1sc(NC(=O)c2cc(Br)ccc2Cl)nc1C [compound 1, 2-(5-bromo-2-chlorobenzamido)-4-methylthiazole-5-methyl ester]
  pIC50: 5.21

Source: article PMC9979163, “Discovery and functional characterization of N-(thiazol-2-yl)-benzamide analogs as the first class of selective antagonists of the Zinc-Activated Channel (ZAC)” (Biochemical pharmacology, 2021)
